The text below walks through data of US20230042509A1, “TREATMENT FOR DISEASES CAUSED BY RNA VIRUSES” (Amerimmune LLC, priority 2021, published 2023).

Each structure is given as a SMILES string.

The test system of data set [1] is PBMCs isolated from COVID-19 patient samples. The data set can be described thus: "Red ring" contaminating RBC layer in PBMC preparation. The following applies: 1 micromolar, room temperature, 17 hours. Format: cell-based, human. An excerpt:
One of the observations made during the preparation of peripheral blood mononuclear cells (PBMC) for some of the experiments described herein was the presence of a contaminating red blood cell (RBC) layer in the PBMC layer, which was referred to as a “red ring”. This “red ring” was present in all COVID-19 patient samples, with no difference between critically ill patients and those who were only on supportive care outside the ICU setting (see FIG. 12A).
When PBMCs isolated from COVID-19 patient samples were incubated with Emricasan (1 micromolar) at room temperature for 17 hours, a decrease in the “red ring” was observed.

For data set [2] the following is noted: in vivo; cited from earlier work.
Another data set concerns the target caspase-1 (Homo sapiens, UniProt P29466). The data set can be described thus: Ex vivo stimulation study: active caspase-1 in CD4 T cells after whole blood incubation with caspase inhibitors (Example 9). Format: cell-based. Conditions: whole blood incubated with inhibitor, 24 hrs later with or without nigericin stimulation.
For the next data set, the target named is T1, caspase-3 (Homo sapiens, UniProt P42574).
T1 construct: EMR suppressed the caspase-3 up-regulation in the COVID-19 plasma incubated samples; endogenous in cells; host or cells: red blood cells of healthy subjects incubated with patient plasma
T1 sequence (P42574 29-277): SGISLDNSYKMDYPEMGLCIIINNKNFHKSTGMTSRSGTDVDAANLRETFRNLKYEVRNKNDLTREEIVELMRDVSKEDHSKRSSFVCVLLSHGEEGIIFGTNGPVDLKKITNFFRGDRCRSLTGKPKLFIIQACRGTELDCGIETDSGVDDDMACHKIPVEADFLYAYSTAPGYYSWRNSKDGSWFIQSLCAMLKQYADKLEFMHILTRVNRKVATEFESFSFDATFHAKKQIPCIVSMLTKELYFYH
The data set can be described thus: Caspase-3 in red blood cells incubated with patient plasma. Format: cell-based.

The next data set relates to mild COVID-19. The data set can be described thus: Phase 1 double-blinded placebo-controlled safety and tolerability study in mild-COVID-19 outpatients. It counts as in vivo, human. On the procedure:
A double-blinded, placebo-controlled randomized safety and tolerability study (1:1 active:placebo) was performed in a number symptomatic outpatient mild-COVID-19 patients receiving standard of care therapy. A total of 13 patients were enrolled at a single site in New York City. Treatment involved administering Emricasan (EMR) (or placebo) at 25 mg BID dosing for 14 days, with follow-up for an additional month. […] This study was thus designed to evaluate safety and tolerability, with the primary endpoint being the difference, if any, between treatment-related adverse events (AEs), including severe adverse events (SAEs), if any, in the active (EMR) and placebo groups through day 14. The pharmacokinetics (PK) of EMR has been extensively studied in earlier clinical trials. Accordingly, patients in this Phase 1 study were sampled at the end of the study to confirm that Emricasan pharmacokinetics was not altered in COVID-19 patients. Secondary endpoints included various clinical and laboratory measures and patient reported outcomes (PROs) using a COVID-19-related assessment tool.

The target in a further data set is T2, Caspase 1 (Homo sapiens, UniProt P29466).
T2 sequence (P29466 120-297 limits assumed): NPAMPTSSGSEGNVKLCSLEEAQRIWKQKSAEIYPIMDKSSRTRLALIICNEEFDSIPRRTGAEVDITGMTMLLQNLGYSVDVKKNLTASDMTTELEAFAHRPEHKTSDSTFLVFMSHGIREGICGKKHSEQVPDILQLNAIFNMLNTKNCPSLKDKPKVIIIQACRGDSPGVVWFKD
T2 sequence (P29466 317-404 limits assumed): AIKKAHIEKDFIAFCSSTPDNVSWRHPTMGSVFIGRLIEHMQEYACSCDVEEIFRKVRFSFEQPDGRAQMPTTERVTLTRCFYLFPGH
The data set can be described thus: FLICA flow cytometry of active caspase-1 in PBMCs from Emricasan-treated COVID-19(+) whole blood (Example 7). It counts as cell-based. The following applies: 1 μM, 17 hours (overnight) at room temperature on a rocker; 3 samples from COVID-19 patients. A general note: Flow cytometry measures light scatter and fluorescence of single cells or particles in a stream.

With `C[C@H](NC(=O)C(=O)Nc1ccccc1C(C)(C)C)C(=O)N[C@@H](CC(=O)O)C(=O)COc1c(F)c(F)cc(F)c1F` [Emricasan, (3S)-3-{[(2S)-2-{[2-(2-tert-butylanilino)-2-oxoacetyl]amino}propanoyl]amino}-4-oxo-5-(2,3,5,6-tetrafluorophenoxy)pentanoic acid], in data set [1], the “"red ring" (contaminating RBC layer)” value is listed as “decrease”. Moreover, the “safety and tolerance profile in humans” value in data set [2] was “excellent safety and tolerance profile”. Besides, on caspase-1, the “T-helper cell caspase-1 expression in COVID-19 samples” value is recorded as “suppressed” and the “T-helper cell caspase-1 upregulation in healthy subjects” value is recorded as “prevented its upregulation”. At caspase-3 (COVID-19 plasma incubated samples), the “caspase-3 up-regulation in RBCs” value is recorded as “suppressed”. For the same molecule, at caspase-3 (influenza-plasma incubated samples), the “baseline caspase-3 expression levels in RBCs” value is reported as “did not change”. For the same molecule, the serious adverse events entry in the data set on mild COVID-19 (25 mg BID for 14 days) was “no reports of serious adverse events”. The safety and tolerability result in the data set with mild COVID-19 (25 mg BID for 14 days, 2 weeks of dosing and week 10 follow up, compared to placebo) was “safe and well tolerated”. For the same molecule, in the data set on mild COVID-19 (25 mg BID for 14 days, at day 7, continued through Day 45, patients who completed treatment), the “resolution of symptoms most commonly associated with mild COVID-19 (cough, headache, fatigue)” value is recorded as “complete resolution”. In the data set on mild COVID-19 (all subjects in the EMR treatment group), the caspase biomarkers entry is given as “decreases”. Also, the “samples with inhibition of nigericin-induced Caspase-1 activity” value on Caspase 1 is “⅓”.

For the molecule `CCO[C@@H]1OC(=O)C[C@@H]1NC(=O)[C@@H]1CCCN1C(=O)[C@@H](NC(=O)c1ccc(N)c(Cl)c1)C(C)(C)C` [VX765], the “T-helper cell caspase-1 expression in COVID-19 samples” value on caspase-1 was “did not show a strong similar suppressive effect”.
